Key:
Assay type in all cases: cell-based
[1] = test system: T47D (PI3Kα H1047R mutant) cells; test: Cell viability (CellTiter-Glo 2.0) in T47D cells; conditions: Homo sapiens, T47D, 72 h, approximately 72 hours
Method: (§1) This Example illustrates that representative compounds of the invention decrease the viability of cells.
(§2) The ability of a compound of Formula (I) to decrease the viability of cells was measured using CellTiter-Glo 2.0 (CTG) Luminescent Cell Viability Assay (#G9241) obtained from Promega (Madison, WI).
(§3) To prepare assay plates for viability assays, cells were trypsinized, resuspended in fresh media, and viable cells were counted utilizing trypan blue exclusion. T47D, SKBR3, or MKN1 cells were seeded at 1000 cells in 30 μl per well in a solid white flat bottom 384 cell culture plate (Perkin Elmer #6007680) and incubated at 37° C. overnight.
(§4) Assay day 1, cells were dosed using an Echo Liquid Handler (Beckman Coulter) with compounds at a 10 μm starting concentration and serially diluted (1:4) for a total of 10 concentrations. Cells were incubated for approximately 72 hours with the compounds (solubilized in DMSO) at 37° C. After 72 hours of treatment, cell plates were equilibrated to room temperature before adding 15 μl of CTG to each well, plates were then covered in aluminum foil to protect from light, incubated at room temperature for 30 minutes on a microtiter plate shaker, and luminescence readings were collected using a CLARIOstar microplate reader (BMG Labtech, Germany). Percent of vehicle control values were plotted as log(inhibitor) vs. response—Variable slope (four parameters) for curve fitting and IC50 values were determined using XLfit.

[2] = test system: SKBR3 (PI3Kα wild type) cells; test: Cell viability (CellTiter-Glo 2.0) in SKBR3 cells; conditions: Homo sapiens, SK-BR-3; SKBR3 (PI3Kα wild type) cells, approximately 72 hours, CellTiter-Glo 2.0; read-out: SKBR3 (WT) Viability IC50
Method: as §1, §2, §3, §4

[3] = test system: pAKT in T47D (PI3Kα H1047R mutant) cells; test: Inhibition of pAKT (alphaLISA Surefire Ultra AKT 1/2/3 pS473) in T47D cells; conditions: Homo sapiens; T47D (PI3Kα H1047R mutant) cells, 24 hr compound incubation, alphaLISA pS473; read-out: T47D (H1047R) pAKT 24 hr (IC50)
Method: The ability of a compound of Formula (I) to inhibit the formation of pAKT was measured using alphaLISA Surefire Ultra AKT 1/2/3 (pS473) Assay Kit (#ALSU-PAKT-B50K) was obtained from Perkin Elmer (Waltham, MA).
To prepare assay plates for pAKT alphaLISA assays, cells were trypsinized, resuspended in fresh media, and viable cells were counted utilizing trypan blue exclusion. Prior to seeding, cells were washed with PBS and resuspended in HBSS (Gibco, #14025092). T47D (12,000/w), SKBR3 (12,000/w), or MKN1 (24,000/w) cells were seeded at 12 μl per well in a solid white flat bottom 384 cell culture plate (Perkin Elmer #6007680).
Immediately after seeding, cells were dosed using an Echo Liquid Handler (Beckman Coulter) with compounds at a 10.4 μm starting concentration and serially diluted (1:4) for a total of 10 concentrations. 14 vehicle (DMSO) and 14 positive control (Alpelisib @3.125 μm) wells were included on each assay plate. Cells were incubated with the compounds (solubilized in DMSO) for approximately 24 hours at 37° C. After 24 hours of treatment, cells were lysed with 3 μl of the 5× lysis buffer (provided and incubated at room temperature for 15 min on a microtiter plate shaker). Once cells were sufficiently lysed, 7.5 μl of the acceptor bead mix (made using the manufacturers recommended dilutions) was added to each well and left on the microtiter plate shaker for 1 min prior to incubating plates at room temperature for 1 hour, in the absence of light. After 1 hour of incubation with the acceptor bead mix, 7.5 μl of the donor bead mix (made using the manufacturers recommended dilutions) was added to each well and left on the microtiter plate shaker for 1 min prior to incubating plates at room temperature overnight in the absence of light. Plates were then imaged the following day using a CLARIOstar microplate reader (BMG Labtech, Germany).
Percent of control values were calculated by subtracting the average signal from the positive control (alpelisib) treated wells from all treated wells (including DMSO control wells) and then divided by the average signal from the vehicle DMSO treated control wells. Percent of vehicle control values were plotted as log(inhibitor) vs. response—Variable slope (four parameters) for curve fitting and IC50 values were determined using XLfit.

Compound	IC50 [1] [µM]	IC50 [2] [µM]	IC50 [3] [µM]
Cc1cc([C@@H](C)Nc2ccccc2C(=O)O)c2nc(N3CCc4ccncc4C3)c(C#N)nc2c1 [Example 89, (R)-2-((1-(2-cyano-3-(3,4-dihydro-2,7-naphthyridin-2(1H)-yl)-7-methylquinoxalin-5-yl)ethyl)amino)benzoic acid]	0.0632	> 10	
Cc1cc([C@@H](C)Nc2ccccc2C(=O)O)c2nc(N3CCC(F)(F)C3)c(C#N)nc2c1 [Example 71, (R)-2-((1-(2-cyano-3-(3,3-difluoropyrrolidin-1-yl)-7-methylquinoxalin-5-yl)ethyl)amino)benzoic acid]	0.276	> 10	
Cc1cc([C@@H](C)Nc2ccc(Cl)nc2C(=O)O)c2nc(N3CC[S+]([O-])CC3)c(C#N)nc2c1 [Example 107, (R)-6-chloro-3-((1-(2-cyano-7-methyl-3-(1-oxidothiomorpholino)quinoxalin-5-yl)ethyl)amino)picolinic acid]	0.216	> 10	
Cc1cc([C@@H](C)Nc2ccc(Cl)nc2C(=O)O)c2nc(NCC3(C(F)(F)F)CC3)c(C#N)nc2c1 [Example 15, (R)-6-chloro-3-((1-(2-cyano-7-methyl-3-(((1-(trifluoromethyl)cyclopropyl)methyl)amino)quinoxalin-5-yl)ethyl)amino)picolinic acid]	0.12	> 10	
Cc1cc([C@@H](C)Nc2ccccc2C(=O)O)c2nc(N3CCc4cc(F)ccc4C3)c(C#N)nc2c1 [Example 88, (R)-2-((1-(2-cyano-3-(6-fluoro-3,4-dihydroisoquinolin-2(1H)-yl)-7-methylquinoxalin-5-yl)ethyl)amino)benzoic acid]	0.365	> 10	
Cc1cc([C@@H](C)Nc2ccc(Cl)nc2C(=O)O)c2nc(N3CC4(COC4)C3)c(C#N)nc2c1 [Example 60, (R)-6-chloro-3-((1-(2-cyano-7-methyl-3-(2-oxa-6-azaspiro[3.3]heptan-6-yl)quinoxalin-5-yl)ethyl)amino)picolinic acid]	0.0211	> 10	
Cc1cc([C@@H](C)Nc2ccccc2-c2nnn[nH]2)c2nc(N3CCOCC3)c(C#N)nc2c1 [Example 852, (R)-5-(1-((2-(1H-tetrazol-5-yl)phenyl)amino)ethyl)-7-methyl-3-morpholinoquinoxaline-2-carbonitrile]	1.44	> 10	
Cc1cc([C@@H](C)Nc2ccc(Cl)nc2C(=O)O)c2nc(N3CCC(C)(C(F)(F)F)CC3)c(C#N)nc2c1 [Example 66, (R)-6-chloro-3-((1-(2-cyano-7-methyl-3-(4-methyl-4-(trifluoromethyl)piperidin-1-yl)quinoxalin-5-yl)ethyl)amino)picolinic acid]	0.078	7.68	
CO[C@H]1CCN(c2nc3c([C@@H](C)Nc4ccc(Cl)nc4C(=O)O)cc(C)cc3nc2C#N)C1 (single isomer, unassigned) [Example 110B]	0.0963	> 10	
Cc1cc([C@@H](C)Nc2ccc(Cl)nc2C(=O)O)c2nc(N3CC4CC3C(F)(F)C4)c(C#N)nc2c1 (single isomer, unassigned) [Example 10]	0.0716	> 10	
Cc1cc([C@@H](C)Nc2ccc(Cl)nc2C(=O)O)c2nc(N3CCC(S(C)(=O)=O)CC3)c(C#N)nc2c1 [Example 106, (R)-6-chloro-3-((1-(2-cyano-7-methyl-3-(4-(methylsulfonyl)piperidin-1-yl)quinoxalin-5-yl)ethyl)amino)picolinic acid]	0.0981	> 10	
Cc1cc([C@@H](C)Nc2ccc(Cl)nc2C(=O)O)c2nc(N3CCCC(F)(F)C3)c(C#N)nc2c1 [Example 12, (R)-6-chloro-3-((1-(2-cyano-3-(3,3-difluoropiperidin-1-yl)-7-methylquinoxalin-5-yl)ethyl)amino)picolinic acid]	0.16	> 10	
Cc1cc([C@@H](C)Nc2ccc(Cl)nc2C(=O)O)c2nc(N3CCC(F)(F)[C@H](C)C3)c(C#N)nc2c1 [Example 78A, 6-chloro-3-(((R)-1-(2-cyano-3-((R)-4,4-difluoro-3-methylpiperidin-1-yl)-7-methylquinoxalin-5-yl)ethyl)amino)picolinic acid]	0.126	7.06	
Cc1cc([C@@H](C)Nc2ccccc2C(=O)O)c2nc(N3CC4(COC4)C3)c(C#N)nc2c1 [Example 59, (R)-2-((1-(2-cyano-7-methyl-3-(2-oxa-6-azaspiro[3.3]heptan-6-yl)quinoxalin-5-yl)ethyl)amino)benzoic acid]	0.14	> 10	
Cc1cc([C@@H](C)Nc2ccccc2C(=O)O)c2nc(NC3CC(F)(F)C3)c(C#N)nc2c1 [Example 76, (R)-2-((1-(2-cyano-3-((3,3-difluorocyclobutyl)amino)-7-methylquinoxalin-5-yl)ethyl)amino)benzoic acid]	0.324	> 10	
Cc1cc([C@@H](C)Nc2ccccc2C(=O)O)c2nc(N3CCC(C)(C(F)(F)F)CC3)c(C#N)nc2c1 [Example 65, (R)-2-((1-(2-cyano-7-methyl-3-(4-methyl-4-(trifluoromethyl)piperidin-1-yl)quinoxalin-5-yl)ethyl)amino)benzoic acid]	0.456	> 10	
Cc1cc([C@@H](C)Nc2ccc(Cl)nc2C(=O)O)c2nc(N3CC[C@@H](F)C3)c(C#N)nc2c1 [Example 177, 6-chloro-3-(((R)-1-(2-cyano-3-((R)-3-fluoropyrrolidin-1-yl)-7-methylquinoxalin-5-yl)ethyl)amino)picolinic acid]	0.0194		0.0005
Cc1cc([C@@H](C)Nc2ccc(Cl)nc2C(=O)O)c2nc(N3CC(F)(F)C3)c(C#N)nc2c1 [Example 128, (R)-6-chloro-3-((1-(2-cyano-3-(3,3-difluoroazetidin-1-yl)-7-methylquinoxalin-5-yl)ethyl)amino)picolinic acid]	0.121		0.0014
Cc1cc([C@@H](C)Nc2ccc(Cl)nc2C(=O)O)c2nc(N3CCc4ccncc4C3)c(C#N)nc2c1 [Example 162, (R)-6-chloro-3-((1-(2-cyano-3-(3,4-dihydro-2,7-naphthyridin-2(1H)-yl)-7-methylquinoxalin-5-yl)ethyl)amino)picolinic acid]	0.035		0.0016
Cc1cc([C@@H](C)Nc2ccc(Cl)nc2C(=O)O)c2nc(-n3ccnc3)c(C#N)nc2c1 [Example 117, (R)-6-chloro-3-((1-(2-cyano-3-(1H-imidazol-1-yl)-7-methylquinoxalin-5-yl)ethyl)amino)picolinic acid]	0.498		0.066
Cc1cc([C@@H](C)Nc2ccc(Cl)nc2C(=O)O)c2nc(N3CCO[C@@H](C)C3)c(C#N)nc2c1 [Example 260, 6-chloro-3-(((R)-1-(2-cyano-7-methyl-3-((S)-2-methylmorpholino)quinoxalin-5-yl)ethyl)amino)picolinic acid]	0.0738		0.0019
COC(=O)c1nc(Cl)ccc1N[C@H](C)c1cc(C)cc2nc(C#N)c(N3CC[C@@](C)(F)C3)nc12 (single isomer, unassigned) [Example 180]	0.0578		0.0016
Cc1cc([C@@H](C)Nc2ccc(Cl)nc2C(=O)O)c2nc(N3C4CCC3COC4)c(C#N)nc2c1 [Example 120, 3-(((1R)-1-(3-(3-oxa-8-azabicyclo[3.2.1]octan-8-yl)-2-cyano-7-methylquinoxalin-5-yl)ethyl)amino)-6-chloropicolinic acid]	0.0564		0.0024
